# Experiment: pH stability of […]-Phe3 (dose–response and fluorescence intensity at pH 6.5, 7.5, 8.5)
# Format: biochemical
# Settings: for fluorescence response of GECFINDER, AVE of 3 repeats: Supplementary Fig. 3 e; for fluorescence intensity, AVE of 3 repeats: Supplementary Fig. 3 d, 100 μM Phe
# From the text: As cpEGFP is sensitive to pH, we conducted a dose-response curve and fluorescence intensity analysis of […]-Phe3 at varying pH levels. […] In addition, we expanded the range of ligand-binding domains (LBDs) applicable to […] and attempted optimization of insertion sites for cpEGFP with limited success. Please refer to Supplemental Note 1 for detailed information.
# The study conducted dose–response curve, substrate specificity, and fluorescent spectrum analyses in 100-mM Tris buffer (pH = 7.5), while pH stability experiments were performed in 100-mM Tris buffer at three different pH values (6.5, 7.5, and 8.5) at room temperature. […] protein at a concentration of 0.75 μM, various small molecule concentrations, 1 mM ATP, and 2.5 mM MgCl2 were used in the experiments. Fluorescent signals were detected using a Microplate Reader (Synergy H4, Bio Tek) at an excitation/emission wavelength of 460 nm/510 nm or 480 nm/510 nm. The dose-response curve was determined immediately after the addition of the analyte. The total duration of the measurement was 15 min, with readings taken at one-minute intervals. The dose-response curve was plotted using the fluorescence values obtained after achieving stability in the fluorescence signal. The dose-response curves were fitted using the logistic model LOGISTIC5 available in Origin 2021, which could provide a more adequate fit to asymmetric dose-response data[62],[63]. Excitation spectra were scanned from 300 to 540 nm with a step size of 5 nm, and the emission wavelength was set to 560 nm. Emission spectra were scanned from 470 to 700 nm with a step size of 5 nm, and the excitation wavelength was set to 450 nm. The thermal stability of […] was analyzed using the UNcle multifunctional protein stability analysis system. Measurements were performed in 20 mM MOPS buffer with 2 mM DTT at a sample concentration of 1 mg/mL. Absolute fluorescence quantum yields were measured using an absolute photoluminescence quantum yield spectrometer (FS5, Edinburgh). […]
# β-P he. […]
# All data shown are mean s ± S.D . (n =3 biologically inde pendent samples). Source
# data are provided as a Source Data file.
# (also on this page, place not known: 10210-210-3 Normalized Normalized […]-Leu3 10-4 10⁵ 2.5 Normalized ΔF/F 0 AlaAr As p As […]Pr SerThr ValTrpTyr Ph R-β-Ph β-Ph e 2.5Normalized ΔF/F 0 Substrate 100μM 100μM 100μM Fluorescence ...K ...N GrsA-PheA PpsA-GluA -QSVF- 10⁰ 10⁵ […]-Ile(VF-QS) Normalized ΔF/F 0 (μM) 0mM 0.75mM His 12×10³Intensity f g Substrate specificity engineering insertion optimization […]. Dose–response purified […]-Leu2 increasing concentrations normalized ΔF/F0 […]-SβF acids R/S- β-Phe. concentrations substrates Fluorescence purified […]-Phe3 different control fluorescence substrate added. response purified […]-Phe3 increasing concentrations different junction domain Dose–response curve purified […]-Ile (VF-QS) increasing concentrations Normalized ΔF/F0 increased after excitation).h, Difference fluorescence intensity […]-His (VF-QS) presence histidine compared control means S.D. (n=3 independent) […]
compound,measurement,setting,value
N[C@@H](Cc1ccccc1)C(=O)O [Phe],"fluorescence response of GECFINDER, AVE of 3 repeats","pH6.5, Phe 0.001 μM",-5.5222e-17
same,"fluorescence response of GECFINDER, AVE of 3 repeats","pH6.5, Phe 0.005 μM",0.01941
same,"fluorescence response of GECFINDER, AVE of 3 repeats","pH6.5, Phe 0.01 μM",0.04517
same,"fluorescence response of GECFINDER, AVE of 3 repeats","pH6.5, Phe 0.05 μM",0.1259
same,"fluorescence response of GECFINDER, AVE of 3 repeats","pH6.5, Phe 0.1 μM",0.2201
same,"fluorescence response of GECFINDER, AVE of 3 repeats","pH6.5, Phe 0.5 μM",0.7727
same,"fluorescence response of GECFINDER, AVE of 3 repeats","pH6.5, Phe 1 μM",1.198
same,"fluorescence response of GECFINDER, AVE of 3 repeats","pH6.5, Phe 5 μM",2.235
same,"fluorescence response of GECFINDER, AVE of 3 repeats","pH6.5, Phe 10 μM",2.5727
same,"fluorescence response of GECFINDER, AVE of 3 repeats","pH6.5, Phe 25 μM",2.94
same,"fluorescence response of GECFINDER, AVE of 3 repeats","pH6.5, Phe 50 μM",3.093
same,"fluorescence response of GECFINDER, AVE of 3 repeats","pH6.5, Phe 100 μM",3.166
same,"fluorescence response of GECFINDER, AVE of 3 repeats","pH7.5, Phe 0.001 μM",0
same,"fluorescence response of GECFINDER, AVE of 3 repeats","pH7.5, Phe 0.005 μM",0.04668
same,"fluorescence response of GECFINDER, AVE of 3 repeats","pH7.5, Phe 0.01 μM",0.05356
same,"fluorescence response of GECFINDER, AVE of 3 repeats","pH7.5, Phe 0.05 μM",0.1413
same,"fluorescence response of GECFINDER, AVE of 3 repeats","pH7.5, Phe 0.1 μM",0.2634
same,"fluorescence response of GECFINDER, AVE of 3 repeats","pH7.5, Phe 0.5 μM",0.9215
same,"fluorescence response of GECFINDER, AVE of 3 repeats","pH7.5, Phe 1 μM",1.384
same,"fluorescence response of GECFINDER, AVE of 3 repeats","pH7.5, Phe 5 μM",2.412
same,"fluorescence response of GECFINDER, AVE of 3 repeats","pH7.5, Phe 10 μM",2.788
same,"fluorescence response of GECFINDER, AVE of 3 repeats","pH7.5, Phe 25 μM",3.108
same,"fluorescence response of GECFINDER, AVE of 3 repeats","pH7.5, Phe 50 μM",3.25
same,"fluorescence response of GECFINDER, AVE of 3 repeats","pH7.5, Phe 100 μM",3.385
same,"fluorescence response of GECFINDER, AVE of 3 repeats","pH8.5, Phe 0.001 μM",5.725e-17
same,"fluorescence response of GECFINDER, AVE of 3 repeats","pH8.5, Phe 0.005 μM",0.003084
same,"fluorescence response of GECFINDER, AVE of 3 repeats","pH8.5, Phe 0.01 μM",0.009629
same,"fluorescence response of GECFINDER, AVE of 3 repeats","pH8.5, Phe 0.05 μM",0.04022
same,"fluorescence response of GECFINDER, AVE of 3 repeats","pH8.5, Phe 0.1 μM",0.0788
same,"fluorescence response of GECFINDER, AVE of 3 repeats","pH8.5, Phe 0.5 μM",0.5458
same,"fluorescence response of GECFINDER, AVE of 3 repeats","pH8.5, Phe 1 μM",0.9288
same,"fluorescence response of GECFINDER, AVE of 3 repeats","pH8.5, Phe 5 μM",1.837
same,"fluorescence response of GECFINDER, AVE of 3 repeats","pH8.5, Phe 10 μM",2.121
same,"fluorescence response of GECFINDER, AVE of 3 repeats","pH8.5, Phe 25 μM",2.449
same,"fluorescence response of GECFINDER, AVE of 3 repeats","pH8.5, Phe 50 μM",2.595
same,"fluorescence response of GECFINDER, AVE of 3 repeats","pH8.5, Phe 100 μM",2.661
same,"fluorescence intensity, AVE of 3 repeats",pH6.5,11375
same,"fluorescence intensity, AVE of 3 repeats",pH7.5,18474.7
same,"fluorescence intensity, AVE of 3 repeats",pH8.5,19389
